Results as given in patent US10246469B2, “Biaryl kinase inhibitors” (BRISTOL-MYERS SQUIBB COMPANY, priority 2015, dated 2019).

The compounds below were run against T1, GST-Xa-hAAK1 (Homo sapiens, UniProt Q2M2I8) (assay: AAK1 Kinase Assay). Conditions: bacterially expressed GST-Xa-hAAK1 3.5 nM; ATP 22 μM; fluoresceinated peptide 1.5 μM; 3 hours at room temperature; Caliper LabChip 3000.
T1 construct: GST (N); Factor Xa cleavage site (Xa) (internal); made in house
Format: biochemical
Procedure: The assays were performed in U-bottom 384-well plates. The final assay volume was 30 μl prepared from 15 μl additions of enzyme and substrates (fluoresceinated peptide (5-FAM)-Aha-[…]-NH2 and ATP) and test compounds in assay buffer (10 mM Tris-HCL pH 7.4, 10 mM MgCl2, 0.01% Tween-20 and 1.0 mM DTT). The reactions were initiated by the combination of bacterially expressed, GST-Xa-hAAK1 with substrates and test compounds. The reactions were incubated at room temperature for 3 hours and terminated by adding 60 μl of 35 mM EDTA buffer to each sample. The reactions were analyzed on the Caliper LabChip 3000 (Caliper, Hopkinton, Mass.) by electrophoretic separation of the fluorescent substrate and phosphorylated product. […] The final concentration of reagents in the assays are ATP, 22 μM; (5-FAM)-Aha-[…]-NH2, 1.5 μM; GST-Xa-hAAK1, 3.5 nM; and DMSO, 1.6%. […] Compounds were dissolved at 10 mM in dimethylsulfoxide (DMSO) and evaluated at eleven concentrations. IC50 values were derived by non-linear regression analysis.

T1 sequence (Q2M2I8 whole entry): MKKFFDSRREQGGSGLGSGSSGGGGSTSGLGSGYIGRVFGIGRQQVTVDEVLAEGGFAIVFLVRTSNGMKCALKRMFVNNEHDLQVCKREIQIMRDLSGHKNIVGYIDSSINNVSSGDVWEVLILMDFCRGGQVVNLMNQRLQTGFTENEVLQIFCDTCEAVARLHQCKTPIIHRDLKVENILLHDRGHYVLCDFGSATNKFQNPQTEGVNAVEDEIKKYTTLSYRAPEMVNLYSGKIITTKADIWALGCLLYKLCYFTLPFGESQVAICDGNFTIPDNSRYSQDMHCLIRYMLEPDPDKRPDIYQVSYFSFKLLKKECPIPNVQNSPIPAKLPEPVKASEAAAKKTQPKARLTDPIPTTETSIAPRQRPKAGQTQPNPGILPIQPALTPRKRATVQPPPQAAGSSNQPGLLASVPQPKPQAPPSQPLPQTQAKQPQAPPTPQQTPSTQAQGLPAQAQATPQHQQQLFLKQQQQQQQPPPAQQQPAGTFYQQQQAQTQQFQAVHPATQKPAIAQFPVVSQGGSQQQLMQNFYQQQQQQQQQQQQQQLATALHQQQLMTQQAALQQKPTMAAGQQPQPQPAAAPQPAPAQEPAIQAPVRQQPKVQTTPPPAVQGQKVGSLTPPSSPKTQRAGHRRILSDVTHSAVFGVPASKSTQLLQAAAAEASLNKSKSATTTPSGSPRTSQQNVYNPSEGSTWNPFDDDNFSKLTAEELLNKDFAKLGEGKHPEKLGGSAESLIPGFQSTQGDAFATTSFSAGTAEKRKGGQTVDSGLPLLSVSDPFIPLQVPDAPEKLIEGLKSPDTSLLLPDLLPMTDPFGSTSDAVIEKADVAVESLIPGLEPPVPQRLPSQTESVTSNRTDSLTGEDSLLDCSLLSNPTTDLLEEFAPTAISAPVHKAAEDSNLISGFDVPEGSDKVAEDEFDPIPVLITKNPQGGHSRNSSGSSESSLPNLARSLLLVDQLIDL

| SMILES | IC50 |
| --- | --- |
| CC(C)C[C@@](C)(N)COc1ncc(-c2ccnc3ccnn23)cc1Cl [Example 265, (R)-1-((3-chloro-5-(pyrazolo[1,5-a]pyrimidin-7-yl)pyridin-2-yl)oxy)-2,4-dimethylpentan-2-amine] | 55 nM |
| CC(C)C[C@](C)(N)COc1ccc(-c2ccnc(NC3CCOC3)c2)cc1Cl (stereo partly drawn) [Example 345, 4-(4-(((S)-2-amino-2,4-dimethylpentyl)oxy)-3-chlorophenyl)-N-(tetrahydrofuran-3-yl)pyridin-2-amine] | 5.2 nM |
| COCc1nc2c(-c3ccc(OC[C@@](C)(N)CC(C)C)c(C(F)(F)F)c3)ccnc2[nH]1 [Example 295, (S)-1-(4-(2-(methoxymethyl)-3H-imidazo[4,5-b]pyridin-7-yl)-2-(trifluoromethyl)phenoxy)-2,4-dimethylpentan-2-amine] | 22 nM |
| CC(C)C[C@](C)(N)COc1ccc(-c2ccnc3ccnn23)nc1C(F)F [Example 322, (S)-1-((2-(difluoromethyl)-6-(pyrazolo[1,5-a]pyrimidin-7-yl)pyridin-3-yl)oxy)-2,4-dimethylpentan-2-amine] | 0.4 nM |
| CC(C)C[C@](C)(N)COc1ccc(-c2ccnc(NC3CCCOC3)c2)cc1Cl (single isomer, unassigned) [Example 340] | 110 nM |
| CC(C)C[C@](C)(N)COc1ccc(-c2ccnc3c2CC(=O)N3)cc1C(F)(F)F [Example 303, (S)-4-(4-((2-amino-2,4-dimethylpentyl)oxy)-3-(trifluoromethyl)phenyl)-1H-pyrrolo[2,3-b]pyridin-2(3H)-one] | 0.6 nM |
| CC(C)C[C@](C)(N)COc1ccc(-c2cc(Cl)nn3ccnc23)cc1C#N [Example 286, (S)-2-((2-amino-2,4-dimethylpentyl)oxy)-5-(6-chloroimidazo[1,2-b]pyridazin-8-yl)benzonitrile] | 47 nM |
| COC(=O)Nc1cc(-c2ccc(OC[C@@](C)(N)CC(C)C)c3ncsc23)ccn1 [Example 269, (S)-methyl (4-(4-((2-amino-2,4-dimethylpentyl)oxy)benzo[d]thiazol-7-yl)pyridin-2-yl)carbamate] | 3.4 nM |
| COCc1nc2c(-c3ccc(OC[C@@](C)(N)CC(C)C)c(C)c3)ccnc2[nH]1 [Example 296, (S)-1-(4-(2-(methoxymethyl)-3H-imidazo[4,5-b]pyridin-7-yl)-2-methylphenoxy)-2,4-dimethylpentan-2-amine] | 132 nM |
| CC(C)C[C@](C)(N)COc1ccc(-c2ccnc3[nH]c(N)nc23)cc1C#N [Example 254, (S)-2-((2-amino-2,4-dimethylpentyl)oxy)-5-(2-amino-3H-imidazo[4,5-b]pyridin-7-yl)benzonitrile] | 22 nM |
| CC(C)C[C@](C)(N)COc1ccc(-c2ccnc3cc(C(F)(F)F)nn23)cc1Cl [Example 336, (S)-1-(2-chloro-4-(2-(trifluoromethyl)pyrazolo[1,5-a]pyrimidin-7-yl)phenoxy)-2,4-dimethylpentan-2-amine] | 15 nM |
| CC(C)C[C@](C)(N)COc1ccc(-c2ccnn3ccnc23)cc1C(F)(F)F [Example 283, (S)-1-(4-(imidazo[1,2-b]pyridazin-8-yl)-2-(trifluoromethyl)phenoxy)-2,4-dimethylpentan-2-amine] | 0.4 nM |
| Cc1nc2c(-c3ccc(OC[C@@](C)(N)CC(C)C)c(C(F)(F)F)c3)ccnc2[nH]1 [Example 291, (S)-2,4-dimethyl-1-(4-(2-methyl-3H-imidazo[4,5-b]pyridin-7-yl)-2-(trifluoromethyl)phenoxy)pentan-2-amine] | 34 nM |

Second part, the compound after the results:

| IC50 | SMILES |
| --- | --- |
| 0.5 nM | CC(C)C[C@](C)(N)COc1ccc(-c2ccnc(NC(=O)C3CCCC3)c2)cc1C(F)(F)F [Example 391, (S)—N-(4-(4-((2-amino-2,4-dimethylpentyl)oxy)-3-(trifluoromethyl)phenyl)pyridin-2-yl)cyclopentanecarboxamide] |
| 138 nM | CC(C)C[C@](C)(N)COc1ccc(-c2ccnc(NC3CCNCC3)c2)cc1C(F)(F)F [Example 470, (S)-4-(4-(2-amino-2,4-dimethylpentyloxy)-3-(trifluoromethyl)phenyl)-N-(piperidin-4-yl)pyridin-2-amine] |
| 0.3 nM | CC(C)C[C@](C)(N)COc1ccc(-c2ccnc(NC(=O)c3ccco3)c2)cc1C(F)(F)F [Example 400, (S)—N-(4-(4-((2-amino-2,4-dimethylpentyl)oxy)-3-(trifluoromethyl)phenyl)pyridin-2-yl)furan-2-carboxamide] |
| 30 nM | Cc1cc(-c2ccnn3cc(C(F)(F)F)nc23)ccc1OC[C@@](C)(N)CC(C)C [Example 500, (S)-2,4-dimethyl-1-(2-methyl-4-(2-(trifluoromethyl)imidazo[1,2-b]pyridazin-8-yl)phenoxy)pentan-2-amine] |
| 0.4 nM | Cc1cn2nccc(-c3ccc(OC[C@@](C)(N)CC(C)C)c(C(F)F)n3)c2n1 [Example 453, (S)-1-((2-(difluoromethyl)-6-(2-methylimidazo[1,2-b]pyridazin-8-yl)pyridin-3-yl)oxy)-2,4-dimethylpentan-2-amine] |
| 7.2 nM | CC(C)C[C@](C)(N)COc1ccc(-c2ccnc3c2C(=O)N(C)C3)cc1C(F)(F)F [Example 426, (S)-4-(4-((2-amino-2,4-dimethylpentyl)oxy)-3-(trifluoromethyl)phenyl)-6-methyl-6,7-dihydro-5H-pyrrolo [3,4-b]pyridin-5-one] |
| 964 nM | Cc1nccc(-c2cnc(OCC3(N)CCC3)c(C)c2)n1 [Example 347, 1-(((3-methyl-5-(2-methylpyrimidin-4-yl)pyridin-2-yl)oxy)methyl)cyclobutanamine] |
| 66 nM | Cc1cn2nc(Cl)cc(-c3ccc(OC[C@@](C)(N)CC(C)C)c(C(F)(F)F)c3)c2n1 [Example 495, (S)-1-(4-(6-chloro-2-methylimidazo [1,2-b]pyridazin-8-yl)-2-(trifluoromethyl)phenoxy)-2,4-dimethylpentan-2-amine] |
| 1.2 nM | CC(C)C[C@](C)(N)COc1ccc(-c2ccnn3cc(C4CC4)nc23)cc1C#N [Example 499, (S)-2-((2-amino-2,4-dimethylpentyl)oxy)-5-(2-cyclopropylimidazo[1,2-b]pyridazin-8-yl)benzonitrile] |
| 862 nM | CC(C)C[C@](C)(N)COc1ccc(-c2ccnc3ccn(C)c23)cc1C#N [Example 423, (S)-2-((2-amino-2,4-dimethylpentyl)oxy)-5-(1-methyl-1H-pyrrolo[3,2-b]pyridin-7-yl)benzonitrile] |
| 1740 nM | Cc1cc(-c2ccnc3ccn(C)c23)ccc1OC[C@@](C)(N)CC(C)C [Example 427, (S)-2,4-dimethyl-1-(2-methyl-4-(1-methyl-1H-pyrrolo[3,2-b]pyridin-7-yl)phenoxy)pentan-2-amine] |
| 0.5 nM | CC(C)C[C@](C)(N)COc1ccc(-c2ccnc3cc[nH]c23)cc1C#N [Example 421, (S)-2-((2-amino-2,4-dimethylpentyl)oxy)-5-(1H-pyrrolo[3,2-b]pyridin-7-yl)benzonitrile] |
| 1.4 nM | CC(C)C[C@](C)(N)COc1ccc(-c2ccnc3cc(C4CC4)nn23)cc1Cl [Example 482, (S)-1-(2-chloro-4-(2-cyclopropylpyrazolo[1,5-a]pyrimidin-7-yl)phenoxy)-2,4-dimethylpentan-2-amine] |
| 6.1 nM | CC(C)C[C@](C)(N)COc1ccc(-c2cc(=O)[nH]cn2)cc1Cl [Example 509, (S)-6-(4-((2-amino-2,4-dimethylpentyl)oxy)-3-chlorophenyl)pyrimidin-4(3H)-one] |
